Laboratory results from patent publication US7018796B2, “Preincubation assay methods” (Shionogi & Co., Ltd., priority 2000, dated 2006).
Blank lines part the entries; values can stand above or below the molecule they belong to.

Target: T1, HCV RNA-dependent RNA polymerase (Hepatitis C virus genotype 1a, UniProt P27958)
T1 construct: HCV RNA-dependent RNA polymerase is encoded in the NS5B (nonstructural protein 5B) region of HCV; made in house; host or cells: insect cells or E. coli
Assay: Pre-incubation assay method with 3H-UTP (Example 1)
Format: biochemical
Details: pre-incubation 25° C. 60 min, method of Example 1; for inhibition at 100 µg/mL: 100 μg/ml, read-out: Inhibition rate at a concentration of 100 μg/ml
Procedure: A HCV RNA-dependent RNA polymerase, template RNA, primer RNA and Mg ion (Mg^2+) are pre-incubated at approximately 25° C. for approximately 1 hour. After that, substrate RNA and a test substance are added to start an enzyme reaction and measure an enzyme activity. IC50 value can be calculated by comparing with an enzyme activity measured in the absence of a test substance as well as the above prior method. An inhibitor can be selected by comparing IC50. An example of a procedure of this method is shown in the later described Example 1.
A cDNA encoding HCV RNA-dependent RNA polymerase was made by use of HCV positive human plasma and HCV RNA-dependent RNA polymerase was expressed using the insect cells or the E. coli. HCV RNA-dependent RNA polymerase in the cell extract was purified by use of an anion exchange chromatography, a heparin affinity chromatography, a polyU affinity chromatography, a cation exchange chromatography and gel filtration chromatography. The purification was performed at 4° C. and Tris buffer (pH 7.5) containing ethylenediaminetetraacetic acid (1 mM), dithiothreitol (10 mM) and glycerol (20%) was used. The enzyme purified was stored at 4° C. until use for the assays.
• 1) The buffer I ^1) (10.5 μl) containing Tris-HCl (100 mM, pH 7.5), MgCl2 (25 mM), dithiothreitol (5 mM), KCl (125 mM) and ethylenediaminetetraacetic acid (5 mM) was transferred to a polypropylene tube and then poly(A)^2) solution (100 μg/ml, 10.5 μl), oligo(U)12 ^3) solution (1 μg/ml, 10.5 μl) and water (8 μl) were added into the tube and mixed. • 2) Next, HCV RNA-dependent RNA polymerase (10.5 μl) was added into the tube and pre-incubated at 25° C. for […]. • 3) The enzyme solution pre-incubated (50 μl) was added to a test compound (5.26 μl/well) dissolved with dimethyl sulfoxide or water in a well of a 96-wells microtiter plate. • 4) Additionally, the buffer II (10.6 μl) containing Tris-HCl (100 mM, pH 7.5), MgCl2 (25 mM), dithiothreitol (5 mM), KCl (125 mM), ethylenediaminetetraacetic acid (5 mM) and UTP • 4) (2.1 μM, 1 μCi ^3H-UTP), was mixed with water (39.4 μl). The mixture (50 μl) was added into the well and mix, and then the enzyme reaction was performed at 25° C. for 30 min. • 5) After enzyme reaction for 30 min, the enzyme reaction was stopped by adding disodium ethylenediaminetetraacetic acid (50 mM, 50 μl). • 6) By use of the cell-harvester, all volume of the enzyme reaction sample was transferred onto a filtermat bound with diethylaminoethyl base (referred to as DEAE-filtermat) and washed twice for 10 sec with sodium phosphate buffer (0.25 M, pH 7.0) and once for 10 sec with de-ionized water. • 7) The DEAE-filtermat was dried at 95° C. for 15 min and transferred into a sample bag with liquid scintillater (10 ml), and then a sample bag was sealed. • 8) The radio activity was measured by a scintillation counter. • 9) The inhibitory rate was calculated from the radioactivity measured (ccpm) as follows. [formula]
The concentration of compound at 50% inhibition (IC50 value) was calculated from the compound concentration used and the inhibitory rate calculated.
When use of a compound at a μg/ml results in A % inhibition and use of a compound at β μg/ml results in B % inhibition on condition of A≧50>B the IC50 value is obtained by the calculation as follows. IC50 (μg/ml)=10^[(50−B)/(A−B)×(log^α^−log^β^)+log^β^]

T1 sequence (P27958 2421-3011): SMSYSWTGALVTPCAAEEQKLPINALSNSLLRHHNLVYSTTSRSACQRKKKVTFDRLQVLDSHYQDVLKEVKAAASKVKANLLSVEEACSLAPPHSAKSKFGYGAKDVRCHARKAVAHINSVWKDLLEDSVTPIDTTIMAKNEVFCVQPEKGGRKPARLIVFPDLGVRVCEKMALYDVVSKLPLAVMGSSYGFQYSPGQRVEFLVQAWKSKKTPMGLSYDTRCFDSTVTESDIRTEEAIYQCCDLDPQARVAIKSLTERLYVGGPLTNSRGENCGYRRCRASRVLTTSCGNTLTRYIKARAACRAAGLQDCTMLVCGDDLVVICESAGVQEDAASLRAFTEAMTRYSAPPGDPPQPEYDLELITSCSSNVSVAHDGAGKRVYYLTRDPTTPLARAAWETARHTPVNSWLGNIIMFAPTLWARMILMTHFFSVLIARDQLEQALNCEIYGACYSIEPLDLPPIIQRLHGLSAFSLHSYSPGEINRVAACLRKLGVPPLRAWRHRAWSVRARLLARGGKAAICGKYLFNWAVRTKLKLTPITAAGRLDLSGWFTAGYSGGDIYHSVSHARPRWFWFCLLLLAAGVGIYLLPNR

Structure (SMILES): O=C(O)C(O)=CC(=O)c1ccc(Cl)cc1 [Compound I-9]
- inhibition at 100 µg/mL: 94%
- IC50: 31.3 µM

Structure (SMILES): O=C(O)C(O)=CC(=O)c1ccsc1 [Compound I-10]
- inhibition at 100 µg/mL: 94%
- IC50: 36.3 µM

Structure (SMILES): O=C(O)C(O)=CC(=O)c1ccc(F)cc1 [Compound I-11]
- inhibition at 100 µg/mL: 94%
- IC50: 35.2 µM

Structure (SMILES): COc1cccc(C(=O)C=C(O)C(=O)O)c1 [Compound I-12]
- inhibition at 100 µg/mL: 94%
- IC50: 37.8 µM

Structure (SMILES): O=C(O)C(O)=CC(=O)c1cccs1 [Compound I-13]
- inhibition at 100 µg/mL: 92%
- IC50: 43.9 µM

Structure (SMILES): O=C(O)C(O)=CC(=O)c1cccc(Br)c1 [Compound I-14]
- inhibition at 100 µg/mL: 93%
- IC50: 32.8 µM

Structure (SMILES): Cn1cccc1C(=O)C=C(O)C(=O)O [Compound I-15]
- inhibition at 100 µg/mL: 94%
- IC50: 50.2 µM

Structure (SMILES): O=C(O)C(O)=CC(=O)c1ccc[nH]1 [Compound I-16]
- inhibition at 100 µg/mL: 92%
- IC50: 55.2 µM

Structure (SMILES): COc1cc(C(=O)C=C(O)C(=O)O)ccc1O [Compound I-17]
- inhibition at 100 µg/mL: 92%
- IC50: 46.2 µM

Structure (SMILES): O=C(O)C(O)=CC(=O)c1ccc(Cl)cc1Cl [Compound I-18]
- inhibition at 100 µg/mL: 90%
- IC50: 49.8 µM

The next molecules have a lower IC50 than those just listed; values first:

- inhibition at 100 µg/mL: 95%
- IC50: 29.8 µM
Structure (SMILES): O=C(O)C(O)=CC(=O)c1cc2ccccc2[nH]1 [Compound I-8]

- inhibition at 100 µg/mL: 95%
- IC50: 28.5 µM
Structure (SMILES): O=C(O)C(O)=CC(=O)c1ccc2ccccc2c1 [Compound I-7]

- inhibition at 100 µg/mL: 97%
- IC50: 14.6 µM
Structure (SMILES): Cc1ccc(C(=O)C=C(O)C(=O)O)s1 [Compound I-6]

- inhibition at 100 µg/mL: 98%
- IC50: 12 µM
Structure (SMILES): O=C(O)C(O)=CC(=O)c1ccccc1 [Compound I-5]

- inhibition at 100 µg/mL: > 99%
- IC50: 6.76 µM
Structure (SMILES): Nc1ccc(C(=O)C=C(O)C(=O)O)cc1 [Compound I-4]

- inhibition at 100 µg/mL: 99%
- IC50: 4.85 µM
Structure (SMILES): Cc1ccc(C(=O)C=C(O)C(=O)O)cc1 [Compound I-3]

- inhibition at 100 µg/mL: 99%
- IC50: 4.32 µM
Structure (SMILES): O=C(O)C(O)=CC(=O)c1ccc(O)cc1 [Compound I-2]
